Patent US20220409686A1, “MEDICAL COMPOSITIONS AND THEIR USES” (BIOMILLENIA SAS, priority 2019, published 2022)
Entries after “also recorded” stand apart in the source; their conditions may differ.

Key:
Type in all cases: cell-based
Malassezia globosa [1] = test: modified disc diffusion assay with living culture (Example 2); details: M. globosa lawn; discs soaked with 15 ul exponentially growing Acetobacter culture or ketoconazole 1 mg/mL in DMSO; 5 days incubation
Method: (§1) FIG. 1|Inhibition assays of M. restricta and M. globose by growth of Acetobacter fabarum. Discs were soaked with ketoconazole (1 mg/ml in DMSO) or exponentially growing Acetobacter fabarum culture and placed on agar plates containing a soft layer inoculated with a single culture of the different Malassezia species to be tested. In the upper panel, inhibition of Malassezia globosa is shown; in the bottom panel, Malassezia restricta is shown.
(§2) In order to identify strains whose growth inhibits Malassezia, inhibition assays were performed using a modified disc diffusion method. This method is similar to the classical disc diffusion method that consists in depositing discs imbibed with potential inhibitory substances on Petri plates containing a strain of interest, except that the discs were imbibed with a living culture of an Acetobacter strain. After optimal growth of the strain of interest, growth inhibition can be observed around discs on which the growth of inhibitory bacteria has occurred. Ketoconazole (at 1 mg/mL in DMSO) was used as a positive control for Malassezia growth inhibition. The effect of growth of Acetobacter was tested on Malassezia restricta and Malassezia globosa. All Malassezia strains were streaked from −80° C. stock on Modified Leeming and Notman (MLN) agar plates and incubated 10 days at 30° C. […]

Malassezia restricta [2] = test: as above; details: M. restricta lawn; discs soaked with 15 ul exponentially growing Acetobacter culture or ketoconazole 1 mg/mL in DMSO; 5 days incubation
Method: as §1, §2

Malassezia sympodialis = test: disc diffusion inhibition assay (Example 1); details: M. sympodialis lawn in soft agar; 6 mm discs soaked with 15 ul supernatant or ketoconazole 1 mg/ml in DMSO; 5 days incubation
Method: (§3) FIG. 1|Inhibition assays of the fungicide ketoconazole as positive control for inhibition and Kazachstania unispora supernatant on M. sympodialis, M. furfur, M. restricta and M. globosa. Inhibition assays were performed using the disc diffusion method. Discs were soaked with ketoconazole (1 mg/ml) or K. unispora supernatant and placed on agar plates containing a soft layer inoculated with a single culture of the different Malassezia species to be tested.
(§4) In order to identify strains inhibiting Malassezia growth, inhibition assays were performed using the disc diffusion method. This method consists in disposing discs imbibed with potential inhibitory substances on Petri plates containing a strain of interest. After optimal growth of the strain of interest, growth inhibition can be observed around discs soaked with substances having an inhibitory effect. Potential inhibitory substances tested in this experiment are supernatants obtained after individually culturing a collection of fungal and bacterial strains. After an incubation of 10 days in their optimal broth, each culture was centrifuged and the supernatant was filtered and further stored at −20° C. Ketoconazole, a fungicide, was used as a positive control for Malassezia growth inhibition. It was diluted in dimethyl sulfoxide at 1 mg/ml. The collection of supernantants was tested on the following species from the genus Malassezia: Malassezia restricta, Malassezia globosa, Malassezia furfur and Malassezia sympodialis. All strains were streaked from −80° C. stock on Modified Leeming and Notman (MLN) agar plates and incubated 10 days at 30° C. A 5 ml liquid culture of each species was made in MLN broth and incubated at 30° C. for 2 days for M. furfur and M. sympodialis and 5 days for M. restricta and M. globosa. To allow a lawn growth of the different Malassezia strains tested, Petri plates were prepared as follows: a bottom layer of 50 ml Modified Sabouraud Dextrose (MSD) agar was poured in Petri plates. The soft agar, constituting the top layer, was a mix of 12.5 ml MSD agar, 10.5 ml MLN broth and 2 ml of liquid culture. Plates were allowed to dry for one hour, then, 6 mm-diameter Whatman™ discs were soaked with 15 ul of each thawed supernatants and ketoconazole and placed on the soft agar plate containing the solidified Malassezia monoculture layer. After an incubation of 5 days, inhibition area could be easily observed around discs. As expected, ketoconazole inhibited all 4 Malassezia species tested in this experiment. […] The strain from which the inhibitory supernatant has been produced was further sequenced using the Sanger technology. The internal transcribed spacer (ITS) of this strain was taxonomically assigned to the yeast Kazachstania unispora (BLASTn, 99% identity, 99% query cover, e-value 0.00).

Malassezia globosa [3] = test: disc diffusion inhibition assay (Example 1); details: M. globosa lawn in soft agar; 6 mm discs soaked with 15 ul supernatant or ketoconazole 1 mg/ml in DMSO; 5 days incubation
Method: as §3, §4

Malassezia furfur = test: disc diffusion inhibition assay (Example 1); details: M. furfur lawn in soft agar; 6 mm discs soaked with 15 ul supernatant or ketoconazole 1 mg/ml in DMSO; 5 days incubation
Method: as §3, §4

Malassezia restricta [4] = test: disc diffusion inhibition assay (Example 1); details: M. restricta lawn in soft agar; 6 mm discs soaked with 15 ul supernatant or ketoconazole 1 mg/ml in DMSO; 5 days incubation
Method: as §3, §4

CC(=O)N1CCN(c2ccc(OCC3COC(Cn4ccnc4)(c4ccc(Cl)cc4Cl)O3)cc2)CC1 (stereo not drawn) [ketoconazole]
growth inhibition (inhibition halo around disc) (Malassezia globosa [1]): inhibits growth; also recorded: inhibited
growth inhibition (inhibition halo around disc) (Malassezia restricta [2]): inhibits growth; also recorded: inhibited
growth inhibition (inhibition halo around disc) (Malassezia sympodialis): inhibits growth; also recorded: inhibited
growth inhibition (inhibition halo around disc) (Malassezia globosa [3]): inhibits growth; also recorded: inhibited
growth inhibition (inhibition halo around disc) (Malassezia furfur): inhibits growth; also recorded: inhibited
growth inhibition (inhibition halo around disc) (Malassezia restricta [4]): inhibits growth; also recorded: inhibited
